Experimental data published in PubChem BioAssay (NCI).
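Cultured in 96-well plates, cells were exposed to test compound for 48 hours across five concentrations. TGI is the concentration that stops growth completely.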 *1 amine or outer side, *2 acyl side, *3 side chain or, on linkers, in order; H or OH if unused. Where a SMILES comes first, the peptide text is derived from it. The star is where a group is joined. γGlu = O=C(O)[CH](CCC(=O)[*:2])N[*:1]; NHOH = ON*

Tests used:
Assay in all cases: DTP human tumour cell line panel, 48 h
[1] = test system: OVCAR-8 ovarian
[2] = test system: KM12 colon
[3] = test system: MOLT-4 leukemia
[4] = test system: MCF7 breast
[5] = test system: OVCAR-3 ovarian
[6] = test system: PC-3 prostate
[7] = test system: NCI-H460 lung
[8] = test system: BT-549 breast
[9] = test system: MDA-MB-435
[10] = test system: K-562 leukemia

SMILES	TGI [1] [µM]	TGI [2] [µM]	TGI [3] [µM]	TGI [4] [µM]	TGI [5] [µM]	TGI [6] [µM]	TGI [7] [µM]	TGI [8] [µM]	TGI [9] [µM]	TGI [10] [µM]
CC1=C[C@H](C[C@]2(C)c3c(c4c(C)cccc4oc3=O)O[C@@H]2C)OC1=O	> 100	> 100	72.3	> 100	> 100	> 100	> 100	74.7	> 100	> 100
O=[N+]([O-])C(/C(Cl)=C(/Cl)N1CCOCC1)=C1\Nc2ccccc2O1	> 100	> 100	> 100	> 100	> 100	> 100	> 100	> 100	> 100	> 100
CCCCOc1ccc(/C=C/C2=[N+](CCO)CCO2)cc1	> 100	> 100	> 100	> 100	> 100	> 100	> 100	> 100	> 100	66.5
CSC(=Nc1ccccc1)c1c(C)[nH]n(-c2ccccc2)c1=O	> 100	> 100	> 100	> 100	> 100	> 100	> 100	> 100	> 100	> 100
CC1=NN(c2ccccc2)C(=O)/C1=C1\SC(c2ccccc2)(c2ccccc2)c2ccccc21	> 100	> 100	> 100	> 100	> 100	> 100	> 100	> 100	> 100	> 100
COc1cc2ncnc(Nc3cccc(Br)c3)c2cc1OC	> 35.1	16.1	> 65.5	> 52	45.4	> 37.2	21.1	> 50.8	49.7	> 55.5
Fc1ccc(/C=C2\COCC3=C2NC(=S)NC3c2ccc(F)cc2)cc1 (stereo not given)	30	63.2	54	39.5	32.6	33	36	53.5	33.3	44.6
Cc1cc2c3c(c1)S(=O)(=O)c1cc(Cl)ccc1N3CCC2	> 100	> 100	> 100	> 100	> 100	> 100	> 100	> 100	> 100	> 100
O=C1O/C(=C(\Br)c2ccc([N+](=O)[O-])cc2)c2ccccc21	> 100	> 100	> 69.1	> 100	> 100	> 100	> 100	> 100	> 100	> 100
O=C1C(NS(=O)(=O)c2ccccc2)=C(n2ccnc2)C(=O)c2ccccc21	> 100	> 100	> 100	> 100	> 100	> 100	> 100	> 100	> 100	> 100
O=c1[nH]c2c(C(F)(F)F)c(Cl)c(-c3ccccc3)nc2o1	> 100	> 100	32.5	> 100	65.8	76.2	69.8	60.3	> 100	84.3
CCN1CC2=C(OC(N)=C(C#N)C2c2ccc(Cl)cc2)/C(=C/c2ccc(Cl)cc2)C1 (stereo not given)	> 100	> 100	> 100	> 100	> 100	98.9	> 100	> 100	> 100	> 100
CC(Nc1cccc(Cl)c1)c1ccncc1 (stereo not given)	> 100	> 100	> 100	> 100	> 100	> 100	> 100	> 100	> 100	> 100
CCCCCCc1cc2cc(C(=O)Nc3nc(C45CC6CC(CC(C6)C4)C5)cs3)c(=O)oc2cc1O	43.1	32.6	49.5	> 100	39.4	34.3	50.3	61	31.4	11
O=C(O)CSC1=NCCN1	> 100	> 100	> 100	> 100	> 100	> 100	> 100	> 100	> 100	> 100
CCOC(=O)Cn1nnc2ccc(Nc3nc4ccccc4nc3C(=O)OCC)cc21	> 100	> 100	> 100	> 100	> 100	> 100	> 100	> 100	> 100	> 100
CCCCOC(=O)Nc1ccc(S(=O)(=O)Nc2c(Cl)cccc2Cl)cc1	64.6	99.4	88.4	92.4	73.5	> 100	> 100	60.7	72.6	47.8
COc1cc(/C=C2\CC3C4CC=C5C[C@@H](O)CC[C@]5(C)C4CC[C@]3(C)\C2=N\O)cc(OC)c1OC (stereo not given in full)	> 100	23.5	> 100	15	61.4	37.8	54.9	37.2	> 100	> 100
NC(CCC(=O)NC(CCC(=O)NO)C(=O)NCC(=O)O)C(=O)O (stereo not given) (γGlu-Glu(NHOH)-Gly-OH; configuration not given here)	> 100	> 100	> 100	> 100	> 100	> 100	> 100	> 100	> 100	> 100
C[N+](C)(N)Cc1nc(-c2ccc(Cl)cc2)no1	> 100	> 100	> 100	> 100	> 100	> 100	> 100	> 100	> 100	> 100
COC(=O)C12C(=O)CC3CCC1C32C(=O)OC (stereo not given)	> 100	> 100	> 100	> 100	> 100	> 100	> 100	> 100	> 100	> 100
CC1OC1C(=O)P(=O)(O)O (stereo not given)	> 100	> 100	> 100	> 100	> 100	> 100	> 100	> 100	> 100	> 100
CCOC(=O)CCCN	> 100	> 100	> 100	> 100	> 100	> 100	> 100	> 100	> 100	> 100
COc1nc2ncc([C@@H](OC(C)=O)[C@@H](COC(C)=O)OC(C)=O)nc2c(=O)n1C	> 100	> 100	> 100	> 100	> 100	> 100	> 100	> 100	> 100	> 100
COc1cc(OC)c(-n2[nH]c(=O)n(C)c2=O)c(OC)c1	> 100	> 100	> 100	> 100	> 100	> 100	> 100	> 100	> 100	> 100
CN(C)CC1CCC/C(=C\c2ccc(Cl)c(Cl)c2)C1=O (stereo not given)	9.89	4.04	4.83	5.44	13.4	> 33.5	28	5.01	18.1	5.47
Cc1ccc2[nH]c3c(c2c1)C1CCC(C(C)(C)C)CC1C1C(=O)N(c2ccc(Oc4ccccc4)cc2)C(=O)C31 (stereo not given)	38.6	> 100	7.92	> 100	35.4	> 100	> 100	64.1	> 100	31.3
Cc1ccc(N=NC(=Nc2ccc(F)cc2)c2ccc(N(CCC#N)CCC#N)cc2)cc1	> 100	> 100	> 100	> 100	> 100	> 100	> 100	> 100	> 100	> 100
C[C@]12C(=O)OC[C@H](c3ccccc3)N1C(=O)N(Cc1ccccc1)[C@@H]2CO	> 100	> 100	> 100	> 100	> 100	> 100	> 100	> 100	> 100	> 100
O=C(CN1CCCCC1)c1ccc2[nH]c(=O)oc2c1	> 100	> 100	> 100	> 100	> 100	> 100	> 100	> 100	> 100	> 100
